Data from patent US20150258190A1, “NICOTINAMIDE AS ADJUVANT” (NOVARTIS AG, priority 2012, published 2015).

Assays:
[1] = system: S. aureus strain Newman; assay: Survival of vaccinated or mock-injected mice after challenge with a lethal dose of live S. aureus; type: in vivo, CD1 mice
Method: Four groups of 47 to 48 CD1 mice were treated as follows: CD1 mice were immunized twice via intraperitoneal injection two weeks apart (on day 0 and day 14), and each mouse received 200 μl of (mock-)vaccine. Groups 1 (Alum-Nam) and 2 (Alum) were mock-injected with alum (saline plus 2 mg/ml aluminium-hydroxide), groups 3 (Combo-NAM) and 4 (Combo only) were immunised with the S. aureus combination vaccine of Example 1. Groups 1 (Alum-Nam) and 3 (Combo-NAM) received 250 mg/kg NAM orally one day before and one day after challenge with a lethal dose of live S. aureus.
On day 24 (i.e. 10 days after the second vaccination), the immunised animals of groups 1-4 were challenged by intraperitoneal injection of a bacterial suspension of S. aureus strain Newman (approximately 2 to 5×10^8 CFU). Cultures of S. aureus were centrifuged, washed twice and diluted in PBS before challenge. Survival of the mice was monitored over a 15-day period post infection.
Survival rates were analysed by Mann-Whitney U-test. Mice were daily monitored and euthanized according to humane endpoints, in agreement with Novartis Animal Welfare Policies.

[2] = system: HlaH35L; assay: Antibody titre at day 23 by Luminex assay; type: in vivo, mice; settings: day 23 after first vaccination
Method: (§1) At day 23 after the first vaccination with the S. aureus combination vaccine (i.e. one day prior to the challenge with a lethal dose of S. aureus), the HlaH35L, EsxAB, Sta006 and Sta011 antibody titres for each group of mice described in Example 2 were measured by Luminex assay.

[3] = system: EsxAB; assay: Antibody titre at day 23 by Luminex assay; type: in vivo, mice; settings: day 23 after first vaccination
Method: as §1

[4] = system: Sta011; assay: Antibody titre at day 23 by Luminex assay; type: in vivo, mice; settings: day 23 after first vaccination
Method: as §1

[5] = system: S. aureus; settings: NAM daily beginning 24 hours prior to or 12 hours after infection with S. aureus; cited from earlier work
[6] = system: Sta006; assay: Antibody titre at day 23 by Luminex assay; type: in vivo, mouse; settings: day 23 after first vaccination
Method: as §1

[7] = cited from earlier work
[8] = cited from earlier work; remark: listed apart in the source

## NC(=O)c1cccnc1 [NAM, nicotinamide]
[1]; CD1 mice, (mock-)vaccine i.p. day 0 and 14, i.p. challenge day 24, NAM 250 mg/kg orally one day before and one day after challenge
  mice that survived until 15 days post infection: 9%
[1]; mice immunized with S. aureus combination vaccine, NAM 250 mg/kg orally
  mortality in comparison to mice which had received only the vaccine: significantly decreased
[1]; mice treated with alum alone, NAM 250 mg/kg orally
  protecting mice against a lethal infection with S. aureus: not effective
[2]
  HlaH35L antibody titre in serum, group 3 (vaccinated, NAM treatment) vs group 4 (vaccinated, no NAM treatment): No significant difference
[3]
  EsxAB antibody titre in serum, group 3 (vaccinated, NAM treatment) vs group 4 (vaccinated, no NAM treatment): No significant difference
[4]
  Sta011 antibody titre in serum, group 3 (vaccinated, NAM treatment) vs group 4 (vaccinated, no NAM treatment): No significant difference
[5]
  immune killing of the bacteria: dramatically enhances
[6]
  Sta006 antibody titre in serum, group 3 (vaccinated, NAM treatment) vs group 4 (vaccinated, no NAM treatment): No significant difference
[7]; animals and humans
  dose reported to be reversible hepatotoxic: > 3 g/day
[7]; human subjects
  side effects associated with treatment of human subjects: no significant side effects
[7]
  oncogenic / teratogenic in humans: neither oncogenic nor teratogenic

## Nc1cccc2c1CN(C1CCC(=O)NC1=O)C2=O (centres unmarked) [lenalidomide]
[7]
  oncogenic / teratogenic in humans: potentially teratogenic
  bone marrow toxicity as adverse effect in patients: frequently observed

## Nc1cccc2c1C(=O)N(C1CCC(=O)NC1=O)C2=O (centres unmarked) [pomalidomide]
[7]
  oncogenic / teratogenic in humans: potentially teratogenic
  bone marrow toxicity as adverse effect in patients: frequently observed

## N[C@H](CCC(=O)N[C@@H](Cc1c[nH]c2ccccc12)C(=O)O)C(=O)O [γ-D-glutamyl-L-tryptophan]
[8]; human, in vivo
  adverse effects on administration to human subjects: without adverse effects
[8]; humans
  clinical effect on oral mucositis: no clinical effect
